Where no end group is shown, it is not given here.
Tests used:
[1] = system: M. luteus ATCC 10240; test: MIC by micro broth-dilution method; assay type: cell-based, Micrococcus luteus; conditions: for MIC against M. luteus ATCC 10240: micro broth-dilution, Mueller Hinton Broth, 2 × 10^5 CFU/mL mixed 1:1 with lantibiotic, BSA-treated 96-well plates, overnight 37 °C, lowest concentration with no visible growth, Rosα (variant) with wild-type Rosβ
Method: (§1) The minimum inhibitory concentration of wild-type roseocin and its variants was determined with micro broth-dilution method. Sterile 96-well microtiter plates were treated with 200 µL of 1% (w/v) bovine serum albumin (BSA) in 1 × phosphate-buffered saline (PBS) solution at 37 °C for 30 min. After this, wells were washed with 1 × PBS to remove excess BSA (Ellis et al. [2020]). Log phase culture was diluted with Mueller Hinton Broth (MHB) to obtain 2 × 10^5 CFU/mL. The bacterial suspension and the lantibiotic were added to 96-well microplates at a ratio of 1:1. The microplates were incubated overnight at 37 °C. The lowest concentration at which no visible growth was observed, was considered MIC.

[2] = system: MSSA ATCC 25923; test: MIC by micro broth-dilution method; assay type: cell-based, Staphylococcus aureus; conditions: for MIC against MSSA ATCC 25923: micro broth-dilution, Mueller Hinton Broth, 2 × 10^5 CFU/mL mixed 1:1 with lantibiotic, BSA-treated 96-well plates, overnight 37 °C, lowest concentration with no visible growth, Rosα (variant) with wild-type Rosβ
Method: as §1

[3] = system: M. luteus ATCC 10240; test: Agar diffusion assay in synergism with Rosβ; assay type: cell-based, Micrococcus luteus; conditions: nutrient agar, leader removed with proteinase K, 4 μg, 2 μg and 1 μg with equal amount of Rosβ
Method: Overnight 10 mL culture of Micrococcus luteus (ATCC 10240), grown in nutrient broth, was diluted to 0.1 OD600 in the fresh 5 mL nutrient broth. The 1 μL/mL of the culture was used for the inoculation in nutrient agar before plating. The culture was added in bearable to touch media. The nutrient agar culture plates were used for checking the activity of Rosα variant peptides and wild type as a positive control, in synergism with Rosβ in a 1:1 ratio.
Alpha variant precursor peptides were cleaved with proteinase K to obtain their bioactive form, as described earlier (Singh et al. 2020) and were spotted with Rosβ in nutrient agar culture plate, in a dose-dependent manner i.e 1 µg, 2 µg, 4 µg (each).

[4] = system: M. luteus ATCC 10240 and methicillin-sensitive Staphylococcus aureus (MSSA) ATCC 25923; test: MIC comparison of variants with wild-type roseocin, both strains; assay type: cell-based, Micrococcus luteus; Staphylococcus aureus; conditions: M. luteus ATCC 10240 and MSSA ATCC 25923, in combination with wild-type Rosβ
Method: as §1

[5] = compared with wild-type Rosα, in combination with wild-type Rosβ

Substance | MIC against M. luteus ATCC 10240 [1] [µM] | Fold change of MIC against MSSA ATCC 25923 relative to wild-type [2, 5] | MIC against MSSA ATCC 25923 [2] [µM] | Zone of inhibition compared to wild type Rosα [3] | Change of MIC / inhibitory activity relative to wild-type roseocin (in words) [4] | Change of MIC / inhibitory activity relative to wild-type roseocin (in words) ([4]; listed as RosαL8F) | Fold change of MIC against M. luteus ATCC 10240 relative to wild-type [1, 5] | Change of MIC / inhibitory activity relative to wild-type roseocin (in words) ([4]; listed as RosαL8W)
NGAGSGVLGTFGCCSCLPWYSGWTVCGLACNPGKPCKN (also: bicyclic or more (positions not given here)) [Roseocin L8F, Rosα variant L8F, modified by RosM, tested in combination with wild-type Rosβ] | 0.5 | four-fold lower MIC | 0.5 | improved significantly | improvement in the MIC | significantly improved inhibitory activity |  | 
INGAGSGVLGTLGCCSCLPWYSGWTVCGLACNPGKPCKN (also: bicyclic or more (positions not given here)) [Roseocin (wild-type)] | 0.5 |  | 2 |  |  |  |  | 
GAGSGVLGTWGCCSCLPWYSGWTVCGLACNPGKPCKN (also: bicyclic or more (positions not given here)) [Roseocin L8W, Rosα variant L8W, modified by RosM, tested in combination with wild-type Rosβ] | 0.25 |  | 2 |  | improvement in the MIC |  | two-fold lower MIC | significantly improved inhibitory activity
NGAGSGVLGTLGCCWCLPWYSGWTVCGLACNPGKPCKN (also: bicyclic or more (positions not given here)) [Roseocin S12W, Rosα variant S12W, modified by RosM, tested in combination with wild-type Rosβ] | 0.5 |  | > 16 |  | no improvement |  |  | 
NGAGSGVLGTLGCCSCLPWYSGWTQCGLACNPGKPCKN (also: bicyclic or more (positions not given here)) [Roseocin V22Q, Rosα variant V22Q, modified by RosM, tested in combination with wild-type Rosβ] | > 8 |  | > 16 |  | loss of potency |  |  | 
Nisin [reference compound] | 0.0625 |  | 2 |  |  |  |  | 
